Laboratory results as given in US11957680B2, “Pyruvate kinase activators for use in treating blood disorders” (Agios Pharmaceuticals, Inc., priority 2017, dated 2024).
pEC50: −log10 of the molar value.

Assays:
wild type PKR [1] = target: T1, wild type PKR (Homo sapiens, UniProt P30613); assay: PKR (wild type) enzyme AC50 assay, LDH/NADH-coupled, absorbance at 340 nm; format: biochemical; conditions: for AC50: Table 2, enzyme assay, read-out: PKR WT AC50; for pEC50: Table 4, AC50, enzyme assay, read-out: PKR WT
T1 sequence (P30613 whole entry): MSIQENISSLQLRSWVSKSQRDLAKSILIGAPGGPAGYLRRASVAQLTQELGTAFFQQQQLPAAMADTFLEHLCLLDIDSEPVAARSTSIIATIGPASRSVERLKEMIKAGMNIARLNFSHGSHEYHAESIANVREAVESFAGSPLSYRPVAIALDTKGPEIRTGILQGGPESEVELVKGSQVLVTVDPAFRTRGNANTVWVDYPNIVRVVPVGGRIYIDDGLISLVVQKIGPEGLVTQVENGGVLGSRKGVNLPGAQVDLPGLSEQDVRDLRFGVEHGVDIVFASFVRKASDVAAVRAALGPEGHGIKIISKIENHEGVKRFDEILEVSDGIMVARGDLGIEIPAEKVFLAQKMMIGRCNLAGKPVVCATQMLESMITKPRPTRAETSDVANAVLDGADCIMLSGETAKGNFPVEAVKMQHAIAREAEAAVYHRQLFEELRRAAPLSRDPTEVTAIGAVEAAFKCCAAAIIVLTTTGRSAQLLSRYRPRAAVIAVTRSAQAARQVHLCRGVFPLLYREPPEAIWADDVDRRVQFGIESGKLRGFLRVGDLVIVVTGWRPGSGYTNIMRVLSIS
Procedure, shortened: (§1)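 Human PKR, wild type or K410E/R510Q mutant (40-400 ng/well), preincubated 60 min at room temperature with compound (11-point 3-fold series from 100 μM, 1% DMSO) in Tris pH 7.5/KCl/MgCl2 buffer with PEP 0.1-0.5 mM, 180 μM NADH, LDH. ADP (0.2-1.65 mM) started the reaction; LDH-coupled NADH consumption followed at 340 nm.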

PKR K410E = PKR K410E (Homo sapiens, UniProt P30613, K410E); assay: PKR mutant assay (K410E), AC50, LDH/NADH-coupled, absorbance at 340 nm; format: biochemical; conditions: for pEC50: Table 4, AC50, enzyme assay
Sequence of PKR K410E (P30613 whole entry K410E): as the sequence (P30613 whole entry) above, with K410E counted along it
Procedure, shortened: as §1

PKR R510Q = PKR R510Q (Homo sapiens, UniProt P30613, R510Q); assay: PKR mutant assay (R510Q), AC50, LDH/NADH-coupled, absorbance at 340 nm; format: biochemical; conditions: for AC50: read-out: PK R510Q AC50; for pEC50: Table 4, AC50, enzyme assay, read-out: PK R510Q
Sequence of PKR R510Q (P30613 whole entry R510Q): as the sequence (P30613 whole entry) above, with R510Q counted along it
Procedure, shortened: as §1

wild type PKR [2] = target: T1, wild type PKR; assay: Cell based ATP assay in purified red blood cells (Cell-Titer-Glo); parameters: endogenous in cells; host or cells: purified red blood cells from healthy volunteers; conditions: overnight at 37° C., ATP levels; for AC50 / Cell based ATP assay AC50: Table 2, RBCs
Procedure, shortened: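 RBCs from healthy human donors' K2EDTA blood were leukocyte-depleted by filtration and resuspended in AGAM (PBS, 1% glucose, adenine, mannitol). Cells at 1×10^7 cells/mL were incubated overnight at 37 °C with serially diluted compound at 0.1% DMSO, and ATP was read by Cell-Titer-Glo luminescence.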

| Compound | AC50 (wild type PKR [1]) [nM] | AC50 (PKR K410E; Table 2, enzyme assay) [nM] | AC50 (PKR R510Q; Table 2, enzyme assay) [nM] | AC50 (wild type PKR [2]) [nM] | other results |
| --- | --- | --- | --- | --- | --- |
| Cn1c2nc(Cc3ccc4[nH]ncc4c3)sc2c2cnn(Cc3cccc4[nH]ncc34)c(=O)c21 [Compound 154] | < 300 | < 300 | < 300 | ≤ 1000 |  |
| COc1cccc(Cn2ncc3c4sc(C)nc4n(C)c3c2=O)c1 [Compound 1] | < 300 | < 300 | < 300 | ≤ 1000 |  |
| Cc1nc2c(s1)c1cnn(Cc3cccc(C(N)=O)c3)c(=O)c1n2C [Compound 395] |  |  |  |  | pEC50 (wild type PKR [1]): < 6.10; pEC50 (PKR K410E): 6.10 to 6.52; pEC50 (PKR R510Q): < 6.10; pEC50 (wild type PKR [2]; Table 4, AC50, RBCs): < 6.00 |
| Cc1nc2c(s1)c1cnn(Cc3cccc(NC(N)=O)c3)c(=O)c1n2C [Compound 15] | > 800 | > 800 | < 300 | > 1000 |  |
| Cc1nc2c(s1)c1cnn(Cc3ccc4nn[nH]c4c3)c(=O)c1n2C [Compound 20] | > 800 | > 800 | > 800 | > 1000 |  |
| Cn1c2nc(C(O)c3ccccn3)sc2c2cnn(Cc3cccc4[nH]ncc34)c(=O)c21 (stereo not drawn) [Compound 130] | > 800 | > 800 | 301 to 800 | ≤ 1000 |  |
| Cn1c2nc(Cc3cc[nH]n3)sc2c2cnn(Cc3ccc(O)c(N)c3)c(=O)c21 [Compound 256] |  |  |  |  | pEC50 (wild type PKR [1]): > 6.52; pEC50 (PKR K410E): > 6.52; pEC50 (PKR R510Q): > 6.52; pEC50 (wild type PKR [2]; Table 4, AC50, RBCs): ≥ 6.00 |
| Cn1ncc2nc(Cn3ncc4c5sc(Cc6cc[nH]n6)nc5n(C)c4c3=O)ccc21 [Compound 288] |  |  |  |  | pEC50 (wild type PKR [1]): > 6.52; pEC50 (PKR K410E): > 6.52; pEC50 (PKR R510Q): > 6.52; pEC50 (wild type PKR [2]; Table 4, AC50, RBCs): ≥ 6.00 |
| Cn1c2nc(Cc3c[nH]cn3)sc2c2cnn(Cc3cccc4[nH]ncc34)c(=O)c21 [Compound 205] |  |  |  |  | pEC50 (wild type PKR [1]): > 6.52; pEC50 (PKR K410E): > 6.52; pEC50 (PKR R510Q): > 6.52; pEC50 (wild type PKR [2]; Table 4, AC50, RBCs): ≥ 6.00 |
| Cn1c2nc(Cc3cscn3)sc2c2cnn(Cc3cccc4[nH]ncc34)c(=O)c21 [Compound 227] |  |  |  |  | pEC50 (wild type PKR [1]): > 6.52; pEC50 (PKR K410E): > 6.52; pEC50 (PKR R510Q): > 6.52; pEC50 (wild type PKR [2]; Table 4, AC50, RBCs): ≥ 6.00 |
| CNc1cccc(Cn2ncc3c4sc(C)nc4n(C)c3c2=O)c1 [Compound 70] | < 300 | < 300 | < 300 | ≤ 1000 |  |
| CNc1cccc(Cc2nc3c(s2)c2cnn(Cc4cccc5[nH]ncc45)c(=O)c2n3C)c1 [Compound 103] | < 300 | < 300 | < 300 | ≤ 1000 |  |
| Cn1c2nc(S(=O)(=O)Cc3ccccc3)sc2c2cnn(Cc3cccc4[nH]ncc34)c(=O)c21 [Compound 128] | < 300 | 301 to 800 | 301 to 800 | > 1000 |  |
| COc1cccc(Cn2ncc3c4sc(SC)nc4n(C)c3c2=O)c1 [Compound 23] | < 300 | < 300 | < 300 | > 1000 |  |
| Cn1c2nc(S(N)(=O)=O)sc2c2cnn(Cc3cccc4[nH]ncc34)c(=O)c21 [Compound 141] | < 300 | < 300 | < 300 | ≤ 1000 |  |
| Cc1nc2c(s1)c1cnn(Cc3cccc(N)n3)c(=O)c1n2C [Compound 74] | < 300 | < 300 | < 300 | ≤ 1000 |  |
| Cn1c2nc(CCO)sc2c2cnn(Cc3cccc4[nH]ncc34)c(=O)c21 [Compound 124] | < 300 | < 300 | < 300 | ≤ 1000 |  |
| CSc1nc2c(s1)c1cnn(Cc3cccc4sc(N)nc34)c(=O)c1n2C [Compound 114] | < 300 | < 300 | < 300 |  | Cell based ATP assay AC50 (wild type PKR [2]): No Fit |

| Compound | AC50 (wild type PKR [1]) [nM] | AC50 (PKR K410E; Table 2, enzyme assay) [nM] | AC50 (PKR R510Q; Table 2, enzyme assay) [nM] | AC50 (wild type PKR [2]) [nM] | other results |
| --- | --- | --- | --- | --- | --- |
| Cn1c2nc(C(O)(C(N)=O)c3ccccc3)sc2c2cnn(Cc3cccc4[nH]ncc34)c(=O)c21 (stereo not drawn) [Compound 152] | 301 to 800 | < 300 | 301 to 800 | ≤ 1000 |  |
| Cn1ccc(Cn2ncc3c4sc(CCc5cccnc5)nc4n(C)c3c2=O)n1 [Compound 406] |  |  |  |  | pEC50 (wild type PKR [1]): < 6.10; pEC50 (PKR K410E): < 6.10; pEC50 (PKR R510Q): < 6.10; Cell based ATP assay (wild type PKR [2]; Table 4, AC50, RBCs): No Fit |
| Cn1c2nc(Cc3cc[nH]n3)sc2c2cnn(Cc3n[nH]c4ccccc34)c(=O)c21 [Compound 372] |  |  |  |  | pEC50 (wild type PKR [1]): > 6.52; pEC50 (PKR K410E): > 6.52; pEC50 (PKR R510Q): > 6.52; pEC50 (wild type PKR [2]; Table 4, AC50, RBCs): ≥ 6.00 |
| Cn1c2nc([S+](C)[O-])sc2c2cnn(Cc3ccnc(N)n3)c(=O)c21 (stereo not drawn) [Compound 97] | > 800 | > 800 | > 800 | > 1000 |  |
| Cn1c2nc(C#N)sc2c2cnn(Cc3cccc(N)n3)c(=O)c21 [Compound 147] | < 300 | < 300 | 301 to 800 | ≤ 1000 |  |
| Cc1nc2c(s1)c1cnn(Cc3ccccc3O)c(=O)c1n2C [Compound 18] | 301 to 800 | 301 to 800 | < 300 | ≤ 1000 |  |
| Cc1cccc(Cn2ncc3c4sc(C)nc4n(C)c3c2=O)n1 [Compound 17] | < 300 | < 300 | < 300 | ≤ 1000 |  |
| Cn1c2nc(Cc3cc(Cl)[nH]n3)sc2c2cnn(Cc3cccc4[nH]ncc34)c(=O)c21 [Compound 233] |  |  |  |  | pEC50 (wild type PKR [1]): > 6.52; pEC50 (PKR K410E): > 6.52; pEC50 (PKR R510Q): > 6.52; pEC50 (wild type PKR [2]; Table 4, AC50, RBCs): ≥ 6.00 |
| Cn1c2nc(Cc3cc[nH]n3)sc2c2cnn(Cc3cccc(C#N)c3)c(=O)c21 [Compound 182] | < 300 | < 300 | < 300 | ≤ 1000 |  |
| Cn1c2nc(Cc3ccc(=O)[nH]c3)sc2c2cnn(Cc3cccc4[nH]ncc34)c(=O)c21 [Compound 174] | > 800 | 301 to 800 | > 800 |  | Cell based ATP assay AC50 (wild type PKR [2]): No Fit |
| Cn1c2nc(CCc3cc[nH]n3)sc2c2cnn(Cc3cccc(N)n3)c(=O)c21 [Compound 394] |  |  |  |  | pEC50 (wild type PKR [1]): > 6.52; pEC50 (PKR K410E): > 6.52; pEC50 (PKR R510Q): > 6.52; pEC50 (wild type PKR [2]; Table 4, AC50, RBCs): ≥ 6.00 |
| Cn1c2nc([S+](C)[O-])sc2c2cnn(Cc3ccc(C#N)cc3)c(=O)c21 (stereo not drawn) [Compound 75] | > 800 | > 800 |  | ≤ 1000 | PK R510Q AC50 (PKR R510Q; Table 2, enzyme assay): No Fit |
| COc1cccc(Cn2ncc3c4sc(C(=O)c5ccccc5)nc4n(C)c3c2=O)c1 [Compound 4] | > 800 |  | > 800 |  | PKR K410E AC50 (PKR K410E; Table 2, enzyme assay): No Fit; Cell based ATP assay AC50 (wild type PKR [2]): No Fit |
| Cn1ccc(Cn2ncc3c4sc(CCc5cc[nH]n5)nc4n(C)c3c2=O)n1 [Compound 393] |  |  |  |  | pEC50 (wild type PKR [1]): > 6.52; pEC50 (PKR K410E): > 6.52; pEC50 (PKR R510Q): > 6.52; pEC50 (wild type PKR [2]; Table 4, AC50, RBCs): ≥ 6.00 |
| C=Cc1nc2c(s1)c1cnn(Cc3cccc(OC)c3)c(=O)c1n2C [Compound 37] | 301 to 800 | > 800 | < 300 | > 1000 |  |
| COc1cccc(Cn2ncc3c4sc(C(F)(F)c5ccccc5)nc4n(C)c3c2=O)c1 [Compound 108] | < 300 | < 300 | < 300 | ≤ 1000 |  |
| Cc1nc2c(s1)c1cnn(Cc3cn[nH]c3)c(=O)c1n2C [Compound 72] | > 800 | > 800 | > 800 | > 1000 |  |
| Cn1c2nc(NC(=O)Cc3cc[nH]n3)sc2c2cnn(Cc3cccc4[nH]ncc34)c(=O)c21 [Compound 180] | > 800 | > 800 | > 800 | > 1000 |  |
